Laboratory results as given in patent publication US4312861A, “Pharmaceutical compositions containing N-alkyl-N-(nuclearly-substituted) benzylamines having vasotonia-regulating activity” (Hoechst Aktiengesellschaft, priority 1974, dated 1982).

Legend:
perfused rabbit ear = assay: Blood-flow change in perfused isolated rabbit ear, vaso-dilator activity (Ringer-Norfenefrin solution)
Method: (3) Blood-flow change in an isolated rabbit ear
The tests were carried out according to Krakow-Pissemski (Pflugers Archiv 151 (1913), page 583 and 156 (1914), page 426). In Table 5a the estimated values of the vaso-constrictor activity in Ringer solutions of varying concentrations are given and in Table 5b values for vasodilatory activity in Ringer-Norfenefrin solutions of varying concentrations are given. As a comparison, the values obtained with the known preparation aescin sodium are given.

[1] = test system: isolated guinea-pig heart; assay: Relative coronary blood-flow change in isolated guinea-pig heart (Langendorff)
Method: (4) Relative coronary blood-flow change in an isolated guinea-pig heart.
The tests were carried out according to the method of Langendorff (Pflugers Archiv. 61 (1895), page 219).
In Table 5, the change in coronary blood flow after administration of various quantities of the test substance is compared with that after administration of the known compounds heptaminol and Aescin sodium salt.

[2] = test system: permeability of the capillaries; assay: Histamine rash test (modified Halpern), capillary permeability; assay type: in vivo; conditions: 30 minutes before histamine
Method: The test according to Halpern (Presse medicale 65 (1949), page 949) was used in modified form. The suppressive effect of the compounds according to the invention on the permeability of the capillaries was tested. The blue coloration induced by intravenous administration of trypan blue at two intracutaneous histamine injection points per animal, (trypan blue administered 2 minutes before the histamine), was estimated according to the following scale of values:
indications of blue coloration
clear blue coloration =4
stong blue coloration =6
The preceding evaluation was made from the combined effect at the two injection points.
The test substances were administered i.p. 30 minutes before the histamine injection.

[3] = Toxicity in the mouse (Litchfield and Wilcoxon); assay type: in vivo; conditions: mouse, in vivo
Method: (6) Toxicity in the mouse
Toxicity was determined according to Litchfield and Wilcoxon (J. Pharmacol. exp. Ther. 97 (1949), page 399) in the mouse. In comparison, the values with the known substance aescin sodium salt were determined. Comparative tests with 0.1% solution, of venous and optical compatibility on the rabbit yielded similar results.

[4] = test system: carrageenin oedema in the rat paw; assay: Suppression of carrageenin oedema in the rat paw (Siegmund); assay type: in vivo; conditions: 3 h p.a.
Method: (7) Suppression of carrageenin oedema in the rat paw
The inflammation-reducing and anti-oedematous effects on carrageenin and serotonin oedemas in the rat paw were studied according to Siegmund et al (Proc. Soc. exp. Biol. Med. 95 (1957), page 729). The values are given as percentages, based on the values obtained in control tests using a dummy procedure. In this way, the antiphlogistic activity of the substances according to the invention was tested.

[5] = test system: writhing movements in the mouse; assay: Writhing test (Winter); assay type: in vivo
From the text: The analgesic activity of the compounds according to the invention were studied by the method of Winter et al (Proc. Soc. exp. Biol. Med, 111 (1962), page 544), in which the suppression of writhing movements in the mouse was observed.

isolated portal vein = assay: Isolated rat's portal vein (Berti), increase in tonus
Method: (2) Isolated rat's portal vein
The tests on the rat's portal vein, an organ with its own rhythm, were performed according to the method of Berti et al (Arch. int. Pharmacodyn. 184 (1970), page 328). In Table 4, the increase in tonus at various adrenalin concentrations is given in milligrams. As a comparison, the values for the known substance heptaminol (=6-amino-2-methylheptane-2-ol) are also given.

[6] = 10 μg (first figure where two are given)
[7] = 30 μg (first figure where two are given)
[8] = 100 μg (first figure where two are given)

CCCCCC(C)NCc1c(C)cc(C)cc1C (single isomer, unassigned) [compound 3]
Relative change in blood flow, vaso-dilator activity (perfused rabbit ear; 3 × 10^-5 g/ml): +38
Relative change in blood flow, vaso-dilator activity (perfused rabbit ear; 10^-5 g/ml): +105
Relative change in blood flow, vaso-dilator activity (perfused rabbit ear; 10^-6 g/ml): +43
Relative change in blood flow, vaso-dilator activity (perfused rabbit ear; 10^-7 g/ml): +3
Relative change in coronary blood flow [1, 6]: +14
Relative change in coronary blood flow [1, 7]: +19
Relative change in coronary blood flow [1, 8]: +30
Histamine rash test, blue coloration score (0 = none, 2 = indications, 4 = clear, 6 = strong) ([2]; 1.0 mg/kg i.p.): 2.5
Histamine rash test, blue coloration score (0 = none, 2 = indications, 4 = clear, 6 = strong) ([2]; 3.0 mg/kg i.p.): 2.5
LD50 ([3]; ip): 50 to 100 mg/kg
LD50 ([3]; iv): 10.8 mg/kg
Suppression of carrageenin oedema in the paw (antiphlogistic activity) ([4]; 100 mg/kg p.o.): 11%

CCCCCC(C)NCc1ccc(Cl)cc1 (single isomer, unassigned) [compound 8]
Relative change in blood flow, vaso-dilator activity (perfused rabbit ear; 3 × 10^-5 g/ml): +66
Relative change in blood flow, vaso-dilator activity (perfused rabbit ear; 10^-6 g/ml): +3
LD50 ([3]; ip): 25 to 100 mg/kg
Suppression of writhing movements ([5]; 50 mg/kg p.o.): 15%

CC(N)CCCC(C)(C)O (stereo not shown) [Heptaminol, 6-amino-2-methylheptane-2-ol, reference compound]
Increase in tonus, isolated rat's portal vein (isolated portal vein; 10^-4 g/ml): +47 milligrams
Increase in tonus, isolated rat's portal vein (isolated portal vein; 10^-5 g/ml): +9 milligrams
Increase in tonus, isolated rat's portal vein (isolated portal vein; 10^-6 g/ml): +9 milligrams
Effect on vessels of the tonicised rabbit ear (perfused rabbit ear; in words): intensifies the Ringer-Norfenefrin constriction in the rabbit ear
Control test with heptaminol, rabbit ear (footnote ++) (perfused rabbit ear; mark in 10^-4 g/ml line): constriction
Relative change in coronary blood flow [1, 6]: 0
Relative change in coronary blood flow [1, 7]: 0
Relative change in coronary blood flow [1, 8]: 0
Effect on coronary vessels of the guinea-pig heart ([1]; in words): no effect on the guinea-pig heart

CCCCCC(C)NCc1c(C)c(C)cc(C)c1C (stereo not shown) [compound 1]
Relative change in coronary blood flow, second figure after slash ([1]; 10 μg): -14
Relative change in coronary blood flow [1, 6]: +53
Relative change in coronary blood flow, second figure after slash ([1]; 30 μg): -11
Relative change in coronary blood flow [1, 7]: +130
LD50 ([3]; ip): 50 to 100 mg/kg

CCCCCC(C)NCc1c(C)cc(C(C)(C)C)cc1C (stereo not shown) [compound 5]
Relative change in coronary blood flow [1, 6]: +118
Relative change in coronary blood flow [1, 7]: +280

CCCCCC(C)NCc1cc(C(C)(C)C)ccc1C (stereo not shown) [compound 6]
Relative change in coronary blood flow [1, 6]: +129
Relative change in coronary blood flow [1, 7]: +187

CCCCCC(C)NCc1ccc(F)cc1 (stereo not shown) [compound 7]
Relative change in blood flow, vaso-dilator activity (perfused rabbit ear; 3 × 10^-5 g/ml): +34
LD50 ([3]; ip): 100 to 250 mg/kg
Suppression of carrageenin oedema in the paw (antiphlogistic activity) ([4]; 25 mg/kg p.o.): 53%
Suppression of carrageenin oedema in the paw (antiphlogistic activity) ([4]; 63 mg/kg p.o.): 71%
Suppression of writhing movements ([5]; 40 mg/kg p.o.): 46%
Suppression of writhing movements ([5]; 63 mg/kg p.o.): 67%
Suppression of writhing movements ([5]; 100 mg/kg p.o.): 77%

CCCCCC(C)NCc1ccccc1Cl (stereo not shown) [compound 9]
LD50 ([3]; ip): 100 to 250 mg/kg

CCCCCC(C)NCc1c(Cl)cccc1Cl (stereo not shown) [compound 10]
Relative change in coronary blood flow [1, 6]: +33

CCCCCC(C)NCc1cccc(Br)c1 (stereo not shown) [compound 11]
LD50 ([3]; ip): 100 to 250 mg/kg

CCCCCC(C)NCc1ccccc1Br (stereo not shown) [compound 12]
Relative change in blood flow, vaso-dilator activity (perfused rabbit ear; 3 × 10^-5 g/ml): +12
LD50 ([3]; ip): 100 to 250 mg/kg

CCCCCC(C)NCc1ccc([N+](=O)[O-])cc1 (stereo not shown) [compound 13]
LD50 ([3]; ip): 100 to 250 mg/kg
Suppression of carrageenin oedema in the paw (antiphlogistic activity) ([4]; 63 mg/kg p.o.): 17%
Suppression of carrageenin oedema in the paw (antiphlogistic activity) ([4]; 100 mg/kg p.o.): 59%

CCCCCNCc1c(C)cc(C)cc1C [compound 14]
LD50 ([3]; ip): 50 to 100 mg/kg

CCCCCCNCc1c(C)cc(C)cc1C [compound 15]
Relative change in coronary blood flow, second figure after slash ([1]; 30 μg): -21
Relative change in coronary blood flow [1, 7]: +68
Relative change in coronary blood flow, second figure after slash ([1]; 100 μg): -17
Relative change in coronary blood flow [1, 8]: +85
LD50 ([3]; ip): 50 to 100 mg/kg
